Assays:
[1] = tested on: sheep liver fluke (Fasciola hepatica); assay: Fluke egg count in faeces and adult fluke count in liver of infected sheep after a single s/c dose (Table 3); format: in vivo; details: for POST MORTEM RESULT No. of adult fluke: liver
Method: Compositions suitable for use as experimental injectable solutions were prepared by formulating the compounds as solutions of their salts either in water or in a mixture of water and ethylene glycol or water and polyethylene glycol (PEG200).
Compositions prepared by the method of Example 10 were used as a single dose to test sheep infected with sheep liver fluke (Fasciola hepatica). The number of liver fluke eggs in the faeces was measured at the time of treatment and at selected intervals up to 30 days after treatment. The sheep were killed and the number of adult fluke in the liver counted. The amount and structure of the active ingredient in each composition and the results of treatment of a sheep with that composition are given in the Table 3 below. The compositions were administered by sub-cutaneous injection (s/c).

[2] = tested on: live Fasciola hepatica; assay: Minimum effective concentration against live Fasciola hepatica in Hedon-Fleig medium (Table 4); details: in vitro, assessed 24 hours after treatment, read-out: MINIMUM EFFECTIVE CONCENTRATION (minimum concentration required to kill Fasciola hepatica)
Method: The minimum effective concentration of compounds of formula I against live Fasciola hepatica was tested by the direct application of the test compound, in solution, to live Fasciola hepatica in Hedon-Fleig medium. The results are given in Table 4 where the minimum effective concentration (minimum concentration required to kill Fasciola hepatica) was assessed 24 hours after treatment with the test compound.

## O=[N+]([O-])c1cc(Cl)cc(C(Sc2ccccc2)c2cc(Cl)cc([N+](=O)[O-])c2O)c1O [Compound 50]
[1]; single dose 12.0 mg/kg
  FAECAL EGG COUNT, day 7: 100 Eggs/g faeces
  FAECAL EGG COUNT, day 14: 0 Eggs/g faeces
  POST MORTEM RESULT No. of adult fluke: 0

## CC(OC(c1cc(Cl)cc([N+](=O)[O-])c1O)c1cc(Cl)cc([N+](=O)[O-])c1O)c1ccccc1 (stereo not shown) [Compound 36]
[2]
  minimal effective concentration: 1 µg/mL

## CC(=O)Nc1ccc(OC(c2cc(Cl)cc([N+](=O)[O-])c2O)c2cc(Cl)cc([N+](=O)[O-])c2O)cc1 [Compound 44]
[2]
  minimal effective concentration: 5 µg/mL

## O=[N+]([O-])c1cc(Cl)cc(C(OCc2ccc(Cl)cc2)c2cc(Cl)cc([N+](=O)[O-])c2O)c1O [Compound 38]
[2]
  minimal effective concentration: 1 µg/mL

## O=[N+]([O-])c1cc(Cl)cc(C(c2cc(Cl)cc([N+](=O)[O-])c2O)C(F)(F)C(F)(F)C(F)(F)F)c1O [Compound 55]
[1]; single dose 2.0 mg/kg
  FAECAL EGG COUNT, day 7: 20 Eggs/g faeces
  FAECAL EGG COUNT, day 14: 0 Eggs/g faeces
  POST MORTEM RESULT No. of adult fluke: 1
[1]; single dose 6.0 mg/kg
  FAECAL EGG COUNT, day 7: 50 Eggs/g faeces
  FAECAL EGG COUNT, day 14: 20 Eggs/g faeces
  POST MORTEM RESULT No. of adult fluke: 0

## CC(C)COC(c1cc(Cl)cc([N+](=O)[O-])c1O)c1cc(Cl)cc([N+](=O)[O-])c1O [Compound 24, bis(5-chloro-2-hydroxy-3-nitrophenyl)methyl isobutyl ether]
[1]; single dose 6.0 mg/kg
  FAECAL EGG COUNT, day 7: 20 Eggs/g faeces
  FAECAL EGG COUNT, day 14: 10 Eggs/g faeces
  POST MORTEM RESULT No. of adult fluke: 0

## COC(=O)Oc1c(C(=C(Cl)Cl)c2cc(Cl)cc([N+](=O)[O-])c2OC(=O)OC)cc(Cl)cc1[N+](=O)[O-] [Compound 18]
[1]; single dose 12.0 mg/kg
  FAECAL EGG COUNT, day 7: 60 Eggs/g faeces
  FAECAL EGG COUNT, day 14: 0 Eggs/g faeces
  POST MORTEM RESULT No. of adult fluke: 1

## O=[N+]([O-])c1cc(Cl)cc(C(OCc2cc(Cl)cc(Cl)c2)c2cc(Cl)cc([N+](=O)[O-])c2O)c1O [Compound 41]
[2]
  minimal effective concentration: 10 µg/mL

## O=[N+]([O-])c1cc(Cl)cc(C(Sc2ccc(Cl)cc2)c2cc(Cl)cc([N+](=O)[O-])c2O)c1O [Compound 51]
[1]; single dose 12.0 mg/kg
  FAECAL EGG COUNT, day 7: 10 Eggs/g faeces
  FAECAL EGG COUNT, day 14: 0 Eggs/g faeces
  POST MORTEM RESULT No. of adult fluke: 0

## CC(c1cc(Cl)cc([N+](=O)[O-])c1O)c1cc(Cl)cc([N+](=O)[O-])c1O [Compound 7]
[1]; single dose 5.0 mg/kg
  FAECAL EGG COUNT, day 7: 0 Eggs/g faeces
  FAECAL EGG COUNT, day 14: 50 Eggs/g faeces
[1]; single dose 8.0 mg/kg
  FAECAL EGG COUNT, day 7: 0 Eggs/g faeces
  FAECAL EGG COUNT, day 14: 0 Eggs/g faeces
  POST MORTEM RESULT No. of adult fluke: 0
[1]; single dose 12.5 mg/kg
  FAECAL EGG COUNT, day 7: 20 Eggs/g faeces
  FAECAL EGG COUNT, day 14: 0 Eggs/g faeces
  POST MORTEM RESULT No. of adult fluke: 0
[1]; single dose 20.0 mg/kg
  FAECAL EGG COUNT, day 7: 0 Eggs/g faeces
  POST MORTEM RESULT No. of adult fluke: 0
[1]; single dose 20.0 mg/kg, day 13
  FAECAL EGG COUNT, day 13: 0 Eggs/g faeces

## CC(=O)Oc1c(C(=C(Cl)Cl)c2cc(Cl)cc([N+](=O)[O-])c2OC(C)=O)cc(Cl)cc1[N+](=O)[O-] [Compound 17]
[1]; single dose 12.0 mg/kg
  FAECAL EGG COUNT, day 7: 110 Eggs/g faeces
  FAECAL EGG COUNT, day 14: 0 Eggs/g faeces
  POST MORTEM RESULT No. of adult fluke: 0

## CC(c1cc(Cl)cc([N+](=O)[O-])c1O)c1cc(Br)cc([N+](=O)[O-])c1O (stereo not shown) [Compound 8, 1-(5-Bromo-2-hydroxy-3-nitrophenyl)-1-(5-chloro-2-hydroxy-3-nitrophenyl)ethane]
[1]; single dose 4.0 mg/kg
  FAECAL EGG COUNT, day 7: 110 Eggs/g faeces
  FAECAL EGG COUNT, day 14: 80 Eggs/g faeces
[1]; single dose 6.0 mg/kg
  FAECAL EGG COUNT, day 7: 20 Eggs/g faeces
  FAECAL EGG COUNT, day 14: 10 Eggs/g faeces
  POST MORTEM RESULT No. of adult fluke: 0
[1]; single dose 8.0 mg/kg
  FAECAL EGG COUNT, day 7: 0 Eggs/g faeces
  FAECAL EGG COUNT, day 14: 0 Eggs/g faeces
  POST MORTEM RESULT No. of adult fluke: 0
[1]; single dose 12.5 mg/kg
  FAECAL EGG COUNT, day 7: 0 Eggs/g faeces
  FAECAL EGG COUNT, day 14: 0 Eggs/g faeces
  POST MORTEM RESULT No. of adult fluke: 0

## CC(c1cc(Br)cc([N+](=O)[O-])c1O)c1cc(I)cc([N+](=O)[O-])c1O (stereo not shown) [Compound 10]
[1]; single dose 12.5 mg/kg
  FAECAL EGG COUNT, day 7: 10 Eggs/g faeces
  FAECAL EGG COUNT, day 14: 90 Eggs/g faeces

## CC(C)SC(c1cc(Cl)cc([N+](=O)[O-])c1O)c1cc(Cl)cc([N+](=O)[O-])c1O [Compound 30]
[1]; single dose 12.0 mg/kg
  FAECAL EGG COUNT, day 7: 10 Eggs/g faeces
  FAECAL EGG COUNT, day 14: 0 Eggs/g faeces
  POST MORTEM RESULT No. of adult fluke: 1

## CCC(C)SC(c1cc(Cl)cc([N+](=O)[O-])c1O)c1cc(Cl)cc([N+](=O)[O-])c1O (stereo not shown) [Compound 47]
[1]; single dose 12.0 mg/kg
  FAECAL EGG COUNT, day 7: 10 Eggs/g faeces
  FAECAL EGG COUNT, day 14: 30 Eggs/g faeces

## O=[N+]([O-])c1cc(Cl)cc(C(OCc2ccc(F)cc2)c2cc(Cl)cc([N+](=O)[O-])c2O)c1O [Compound 40]
[1]; single dose 2.0 mg/kg
  FAECAL EGG COUNT, day 7: 0 Eggs/g faeces
  FAECAL EGG COUNT, day 14: 130 Eggs/g faeces
[1]; single dose 6.0 mg/kg
  FAECAL EGG COUNT, day 7: 0 Eggs/g faeces
  FAECAL EGG COUNT, day 14: 0 Eggs/g faeces
  POST MORTEM RESULT No. of adult fluke: 0

## O=[N+]([O-])c1cc(Cl)cc(C(c2cc(Cl)cc([N+](=O)[O-])c2O)C(Cl)(Cl)Cl)c1O [Compound 11]
[1]; single dose 5.0 mg/kg
  FAECAL EGG COUNT, day 7: 50 Eggs/g faeces
  FAECAL EGG COUNT, day 14: 0 Eggs/g faeces
  POST MORTEM RESULT No. of adult fluke: 0

## CC(C)(c1cc(F)cc([N+](=O)[O-])c1O)c1cc(F)cc([N+](=O)[O-])c1O [Compound 19, 2,2'-Isopropylidene bis(4-fluoro-6-nitrophenol)]
[1]; single dose 12.5 mg/kg
  FAECAL EGG COUNT, day 7: 210 Eggs/g faeces
  FAECAL EGG COUNT, day 14: 180 Eggs/g faeces

## O=[N+]([O-])c1cc(Cl)cc(Cc2cc(Cl)cc([N+](=O)[O-])c2O)c1O [Compound 1]
[1]; single dose 12.5 mg/kg
  FAECAL EGG COUNT, day 7: 0 Eggs/g faeces
  FAECAL EGG COUNT, day 14: 50 Eggs/g faeces
  POST MORTEM RESULT No. of adult fluke: 0
[1]; single dose 12.5 mg/kg, day 30
  FAECAL EGG COUNT, day 30: 0 Eggs/g faeces

## CC(c1cc(Br)cc([N+](=O)[O-])c1O)c1cc(Br)cc([N+](=O)[O-])c1O [Compound 9]
[1]; single dose 12.5 mg/kg
  FAECAL EGG COUNT, day 7: 0 Eggs/g faeces
  FAECAL EGG COUNT, day 14: 0 Eggs/g faeces
  POST MORTEM RESULT No. of adult fluke: 0

## O=[N+]([O-])c1cc(Cl)cc(Cc2cc(Br)cc([N+](=O)[O-])c2O)c1O [Compound 3]
[1]; single dose 12.5 mg/kg
  FAECAL EGG COUNT, day 7: 0 Eggs/g faeces
  FAECAL EGG COUNT, day 14: 0 Eggs/g faeces
  POST MORTEM RESULT No. of adult fluke: 1

## O=[N+]([O-])c1cc(Cl)cc(C(OCc2cccc(F)c2)c2cc(Cl)cc([N+](=O)[O-])c2O)c1O [Compound 37]
[1]; single dose 6.0 mg/kg
  FAECAL EGG COUNT, day 7: 0 Eggs/g faeces
  FAECAL EGG COUNT, day 14: 0 Eggs/g faeces
  POST MORTEM RESULT No. of adult fluke: 2

## CCOC(c1cc(Cl)cc([N+](=O)[O-])c1O)c1cc(Cl)cc([N+](=O)[O-])c1O [Compound 26]
[1]; single dose 6.0 mg/kg
  FAECAL EGG COUNT, day 7: 130 Eggs/g faeces
  FAECAL EGG COUNT, day 14: 10 Eggs/g faeces
  POST MORTEM RESULT No. of adult fluke: 0

## CCCSC(c1cc(Cl)cc([N+](=O)[O-])c1O)c1cc(Cl)cc([N+](=O)[O-])c1O [Compound 45]
[1]; single dose 12.0 mg/kg
  FAECAL EGG COUNT, day 7: 10 Eggs/g faeces
  FAECAL EGG COUNT, day 14: 0 Eggs/g faeces
  POST MORTEM RESULT No. of adult fluke: 1

## CC(C)(c1cc(F)cc([N+](=O)[O-])c1O)c1cc(Cl)cc([N+](=O)[O-])c1O [Compound 20, 2-(5-chloro-2-hydroxy-3-nitrophenyl)-2-(5-fluoro-2-hydroxy-3-nitrophenyl)propane]
[1]; single dose 12.5 mg/kg
  FAECAL EGG COUNT, day 7: 400 Eggs/g faeces
  FAECAL EGG COUNT, day 14: 140 Eggs/g faeces

## O=[N+]([O-])c1cc(F)cc(C(=C(Cl)Cl)c2cc(F)cc([N+](=O)[O-])c2O)c1O [Compound 16]
[1]; single dose 12.5 mg/kg
  FAECAL EGG COUNT, day 7: 10 Eggs/g faeces
  FAECAL EGG COUNT, day 14: 10 Eggs/g faeces
  POST MORTEM RESULT No. of adult fluke: 0

From patent US4251546A, “Process for killing internal helminths using certain 1,1-bis-(2-substituted-3-nitrophenyl)alkane or alkylene derivatives” (ICI Australia Limited, priority 1977, dated 1981)
